US4165379A, “N-acetyl thienamycin” (Merck & Co., Inc., priority 1977, dated 1979)
Like-named read-outs stand apart in the source and are kept apart here.

Experiments:
Bacillus subtilis = experiment: Bauer-Kirby disc diffusion antibiotic spectrum (Table 3); assay type: cell-based; details: MB 964, ATCC 6633, read-out: diameter of the zone of inhibition
Text: (§1) The test employs the Bauer-Kirby disc diffusion method modified only in respect to the 2 mm. agar depth employed here.

Enterobacter cloacae = experiment: as above; assay type: cell-based; details: read-out: diameter of the zone of inhibition; for zone of inhibition at 10.35 µg/disc: Enterobacter cloacae, 10.35 μg/disc, prepared by acetylating thienamycin; for zone of inhibition at 9.85 µg/disc: 9.85 μg/disc, prepared by fermenting Streptomyces cattleya
Text: as §1

Escherichia coli = experiment: as above; assay type: cell-based; details: read-out: diameter of the zone of inhibition; for zone of inhibition at 10.35 µg/disc: Escherichia coli, 10.35 μg/disc, prepared by acetylating thienamycin; for zone of inhibition at 9.85 µg/disc: 9.85 μg/disc, prepared by fermenting Streptomyces cattleya
Text: as §1

Klebsiella pneumoniae = experiment: as above; assay type: cell-based; details: read-out: diameter of the zone of inhibition; for zone of inhibition at 10.35 µg/disc: Klebsiella pneumoniae, 10.35 μg/disc, prepared by acetylating thienamycin; for zone of inhibition at 9.85 µg/disc: 9.85 μg/disc, prepared by fermenting Streptomyces cattleya
Text: as §1

Proteus mirabilis = experiment: as above; assay type: cell-based; details: MB2830, resistance P,C (penicillins, cephalosporins), read-out: diameter of the zone of inhibition
Text: as §1

Proteus morganii = experiment: as above; assay type: cell-based; details: MB2833, resistance P,C (penicillins, cephalosporins), read-out: diameter of the zone of inhibition
Text: as §1

Pseudomonas aeruginosa = experiment: as above; assay type: cell-based; details: read-out: diameter of the zone of inhibition; for zone of inhibition at 9.85 µg/disc: 9.85 μg/disc, prepared by fermenting Streptomyces cattleya; for zone of inhibition at 10.35 µg/disc: Pseudomonas aeruginosa, 10.35 μg/disc, prepared by acetylating thienamycin
Text: as §1

Serratia = experiment: as above; assay type: cell-based; details: MB2840, resistance P,C (penicillins, cephalosporins), read-out: diameter of the zone of inhibition
Text: as §1

Staphylococcus aureus = experiment: as above; assay type: cell-based; details: for diameter of the zone of inhibition: MB2314, resistance P (penicillins)
Text: as §1

Staph aureus 2949 = experiment: Efficacy studies (mice), intraperitoneal infection (Table 4); assay type: in vivo, CD-1 female mice infected with Staph aureus; details: Staphylococcus aureus, 2949, ip, 168 h; i.p. × 2, at time of infection and again 6 hours later; challenge 13 LD50; survival seventh day after infection
Experimental: (§2) In determining the in vivo activity, N-acetyl thienamycin is dissolved in and diluted with 0.01 M sodium phosphate, pH 7.0, to provide five fourfold concentrations of drug for testing. Female white Swiss mice, averaging about 21 g. in weight, were infected intraperitoneally with the test organism suspended in broth. The numbers of organisms injected were determined by standard plate-count techniques. At the time of infection, and again 6 hours later, certain of the mice were treated intraperitoneally with the antibiotic. Five mice were used for each concentration of drug tested. Controls of five mice for each of several dilutions of the infecting culture were included in each test in order to calculate the numbers of organisms that were lethal to 50% of the infected, untreated mice (LD50). This calculation was made using survival data of the seventh day after infection, at which time the amount of drug that should protect 50% of the infected mice (ED50) also was calculated.

[1] = pKa from the λ max dependence on pH; assay type: physicochemical; details: read-out: pKa for a COOH group
[2] = tested on: Vibrio percolans ATCC 8461; experiment: Disc-diffusion bioassay on ATCC 8461 plates; assay type: cell-based; details: crude sample (244 absorbance units at 298 nm); 1/2 inch disc, 0.1 ml of 1000 fold dilution; 25° C.
Experimental: Assays of antibacterial activity are run according to the following disc-diffusion method using either Vibrio percolans ATCC 8461 or Staphylococcus aureus ATCC […] as tester organism. Plates containing Vibrio percolans ATCC 8461 are prepared as follows: A lyophilized culture of Vibrio percolans ATCC 8461 is suspended in 15 ml. of a sterilized medium containing 8 g./l. of Difco Nutrient Broth and 2 g./l. of yeast extract in distilled water (hereinafter designated NBYE). The culture is incubated overnight on a rotary shaker at 28° C. This culture is used to inoculate the surface of […] containing 1.5% agar in NBYE, and the inoculated […] incubated overnight at 28° C. and then stored in a refrigerator. The refrigerated […] prepared from a single lyophilized culture are used for up to four weeks from their preparation, as follows: A loop of inoculum from the slant is dispersed in 50 ml. of NBYE contained in a 250 ml. Erlenmeyer flask. […] The plates are incubated at 37° C. overnight, and the zone of inhibition is measured as mm. diameter. The zone of inhibition measured in mm. determines relative potencies. […] The solution contains 244 absorbance units at 298 nm and a 1/2 inch assay disc containing 0.1 ml. of a 1000 fold dilution, produces a 23 mm. zone of inhibition when incubated on ATCC 8461 plates at 25° C.

[3] = tested on: gram-negative and gram-positive organisms; experiment: In vivo activity against infections in mice; details: mouse
Experimental: as §2

[4] = tested on: Staphylococcus aureus ATCC 6538P; experiment: Disc-diffusion potency in units/mg relative to cephalothin; assay type: cell-based
Experimental: Plates containing Staphylococcus aureus ATCC 6538P are prepared as follows:
An overnight growth of the assay organism, Staphylococcus aureus ATCC 6538P, in nutrient broth plus 0.2% yeast extract is diluted with nutrient broth plus 0.2% yeast extract to a suspension having 55% transmittance at a wavelength of 660 nm. This suspension is added to Difco nutrient agar supplemented with 2.0 g./l. Difco yeast extract at 47° C. to 48° C., to make a composition containing 33.2 ml. of the suspension per liter of agar. Five ml. of this suspension is poured into petri dishes of 85 mm. diameter, and these plates are chilled and held at 4° C. until used (5 day maximum).
Samples of antibiotic to be assayed are diluted to an appropriate concentration in phosphate buffer at pH 7. Filter paper discs, 1/4 or 1/2 inch diameter, are dipped into the test solution and placed on the surface of the assay plate. The plates are incubated at 37° C. overnight, and the zone of inhibition is measured as mm. diameter. The zone of inhibition measured in mm. determines relative potencies.
The 48 l. concentrate is adjusted to pH 7.3 and adsorbed on 76 l. of Dowex 1×2, 50 to 100 mesh, chloride cycle resin at 7.6 l./min. The resin is eluted with deionized water at the same rate. Four fractions are collected, two of 48 l., one of 70 l. and one of 48 l. The fractions are adjusted to pH 7 as collected. Assays indicate that 68% of the starting bioactivity is in the 70 l. fraction. This fraction is concentrated to 18 l. at pH 7.0 and filtered using a 0.45 micron Millipore Filter.

[5] = 9.85 μg/disc, prepared by fermenting Streptomyces cattleya
[6] = MB2646, resistance P,C (penicillins, cephalosporins)
[7] = MB2482, resistance P (penicillins)
[8] = MB2964, resistance P,C (penicillins, cephalosporins)
[9] = MB2921, resistance P (penicillins)
[10] = MB2922, resistance P (penicillins)
[11] = MB2824, resistance P,C (penicillins, cephalosporins)
[12] = MB2835, resistance P,C (penicillins, cephalosporins), zone hazy
[13] = MB3286, resistance P,C (penicillins, cephalosporins)

CC(=O)NCCSC1=C(C(=O)O)N2C(=O)C(C(C)O)C2C1 (centres unmarked) [N-Acetyl Thienamycin, N-acetyl thienamycin]
zone of inhibition at 10.35 µg/disc (Bacillus subtilis; Bacillus subtilis, ATCC6633, 10.35 μg/disc, prepared by acetylating thienamycin): 44.5 mm | zone of inhibition at 9.85 µg/disc (Bacillus subtilis; [5]): 43 mm | zone of inhibition at 10.35 µg/disc (Enterobacter cloacae; [6]): 27 mm | zone of inhibition at 10.35 µg/disc (Enterobacter cloacae; MB2647): 29 mm | zone of inhibition at 9.85 µg/disc (Enterobacter cloacae; [6]): 26.5 mm | zone of inhibition at 9.85 µg/disc (Enterobacter cloacae; MB2647): 29 mm | zone of inhibition at 10.35 µg/disc (Escherichia coli; [7]): 28 mm | zone of inhibition at 10.35 µg/disc (Escherichia coli; MB2884): 31.5 mm | zone of inhibition at 10.35 µg/disc (Escherichia coli; [8]): 29.5 mm | zone of inhibition at 9.85 µg/disc (Escherichia coli; [7]): 28 mm | zone of inhibition at 9.85 µg/disc (Escherichia coli; MB2884): 31.5 mm | zone of inhibition at 9.85 µg/disc (Escherichia coli; [8]): 28.5 mm | zone of inhibition at 10.35 µg/disc (Klebsiella pneumoniae; [9]): 28.5 mm | zone of inhibition at 10.35 µg/disc (Klebsiella pneumoniae; [10]): 30 mm | zone of inhibition at 9.85 µg/disc (Klebsiella pneumoniae; [9]): 28 mm | zone of inhibition at 9.85 µg/disc (Klebsiella pneumoniae; [10]): 27 mm | zone of inhibition at 9.85 µg/disc (Proteus mirabilis; [5]): 25 mm | zone of inhibition at 10.35 µg/disc (Proteus mirabilis; Proteus mirabilis, 10.35 μg/disc, prepared by acetylating thienamycin): 26 mm | zone of inhibition at 9.85 µg/disc (Proteus morganii; [5]): 25.5 mm | zone of inhibition at 10.35 µg/disc (Proteus morganii; Morganella morganii, 10.35 μg/disc, prepared by acetylating thienamycin): 25 mm | zone of inhibition at 9.85 µg/disc (Pseudomonas aeruginosa; [11]): 23 mm | zone of inhibition at 9.85 µg/disc (Pseudomonas aeruginosa; [12]): 11 mm | zone of inhibition at 9.85 µg/disc (Pseudomonas aeruginosa; [13]): 0 mm | zone of inhibition at 10.35 µg/disc (Pseudomonas aeruginosa; [11]): 24 mm | zone of inhibition at 10.35 µg/disc (Pseudomonas aeruginosa; [12]): 11 mm | zone of inhibition at 10.35 µg/disc (Pseudomonas aeruginosa; [13]): 0 mm | zone of inhibition at 9.85 µg/disc (Serratia; [5]): 27 mm | zone of inhibition at 10.35 µg/disc (Serratia; Serratia, 10.35 μg/disc, prepared by acetylating thienamycin): 27 mm | diameter of the zone of inhibition (Staphylococcus aureus; [5]): 37 millimeters | diameter of the zone of inhibition (Staphylococcus aureus; 10.35 μg/disc, prepared by acetylating thienamycin): 37 millimeters | zone of inhibition at 9.85 µg/disc (Staphylococcus aureus; MB2985, 9.85 μg/disc, prepared by fermenting Streptomyces cattleya, read-out: diameter of the zone of inhibition): 37 mm | zone of inhibition at 10.35 µg/disc (Staphylococcus aureus; Staphylococcus aureus, MB2985, 10.35 μg/disc, prepared by acetylating thienamycin, read-out: diameter of the zone of inhibition): 37 mm | ED50 (Staph aureus 2949): 0.05 mg/kg | pKa [1]: 3.3 ± 0.1 | zone of inhibition [2]: 23 mm | in vivo activity [3]: exhibits in vivo activity against gram-negative and gram-positive organisms

C[C@@H](O)[C@H]1C(=O)N2C(C(=O)O)=C(SCCN)C[C@H]12 [thienamycin]
calculated potency ([4]; 23.6 mg. after second XAD-2 column): 30,140 units/mg | average potency ([4]; 90 mg. after Bio-Gel P-2, fractions 75 through 80): 10,000 units/mg | potency ([4]; 100.5 mg. after Bio-Gel P-2, fractions 75 through 79): 8,320 units/mg | calculated potency ([4]; after second XAD-2 column, 3.1 fold purification): 31,000 units/mg | potency ([4]; freeze-dried product after Dowex 1×2): 310 units/mg
